Measurements: patent US12331018B2, “Pyrrolidine orexin receptor agonists” (Merck Sharp & Dohme LLC, priority 2019, dated 2025)
Where two headings read alike, the source gives them in different places.

Target: T1, human OX2R (Homo sapiens, UniProt O43614)
T1 construct: expressed in transfected cells; host or cells: CHO (Chinese hamster ovary) cells, grown under G418 selection
T1 sequence (O43614 1-444): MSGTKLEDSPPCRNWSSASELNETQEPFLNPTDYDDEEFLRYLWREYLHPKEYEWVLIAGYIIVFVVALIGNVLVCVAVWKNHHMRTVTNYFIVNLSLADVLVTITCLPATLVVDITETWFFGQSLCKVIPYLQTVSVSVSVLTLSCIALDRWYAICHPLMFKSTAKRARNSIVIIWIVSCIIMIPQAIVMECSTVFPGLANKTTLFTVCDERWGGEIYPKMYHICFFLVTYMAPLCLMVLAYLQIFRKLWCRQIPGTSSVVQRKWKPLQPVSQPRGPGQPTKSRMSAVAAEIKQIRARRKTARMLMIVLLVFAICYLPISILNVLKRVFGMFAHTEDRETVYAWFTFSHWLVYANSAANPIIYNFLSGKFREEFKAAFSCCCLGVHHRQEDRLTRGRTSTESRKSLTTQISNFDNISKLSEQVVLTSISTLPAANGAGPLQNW
Assay: IPOne (IP-1 accumulation) assay in CHO cells expressing human OX2R
Type: cell-based
Settings: for Emax, % of reference agonist: OX2R, percentage of sample raw value/mean max effect (reference compound at 1 uM with 100% activity)
From the text: The utility of the compounds in accordance with the present invention as orexin receptor OX1R and/or OX2R agonists may be readily determined without undue experimentation by methodology well known in the art. Both the OX1R and/or OX2R G-coupled protein receptors (GPCRs) couple through the Gaq signaling pathway, which ultimately promotes calcium mobilization via inositol triphosphate (IP3) production. The half-life of IP-3 is relatively short, being rapidly metabolized to inositol monophosphate (IP-1), which can be readily detected using a commercially available assay kit (IP-One; Cisbio; cat #621PAPEC) coupled with a cell line expressing the target receptor(s) of interest. The utility of the compounds in accordance with the present invention as orexin receptor OX1R and/or OX2R agonists may be determined utilizing this assay.
In a typical experiment, the OX1 and OX2 receptor agonist activity is determined in accordance with the following general experimental method. Chinese hamster ovary (CHO) cells expressing human OX1R and/or the human OX2R were grown in Iscove's modified DMEM containing glutaMAX™, 1% G418, 100 U/mL penicillin, 100 μg/mL streptomycin and 10% heat-inactivated qualified fetal bovine serum (FBS). The OX2R cells were seeded at 10,000 cells/well/50 μL and the OX1R cells were seeded at 20,000 cells/well/50 μL into 384-well white tissue culture plates (Greiner; cat #781080). All cell/media reagents were from GIBCO-Invitrogen Corp. The seeded cell plate(s) were incubated at 37° C. with 5% CO2 and 85% humidity for 20-24 hours. On the day of the assay, assay-ready compound plates were prepared using an acoustic liquid handler (ECHO; Labcyte), which dispensed sufficient volume of test compound stock (10 mM in DMSO) or 100% DMSO to prepare 10 point, ½-log dilutions in a final volume of 202.5 nL/well in all test wells of a 384-well diamond plate (Labcyte). Following completion of assay-ready plates, importantly, the next three steps were performed with minimal delay: 1) 20 μl of 1× stimulation buffer was added to the compound plate using a Multidrop Combi (small cassette, Thermo Fisher Scientific cat #24073290); 2) culture medium was removed from the cell plate using the Bluewasher plate washer (gentle spin; BlueCatBio); 3) 14 μl of compound/stimulation buffer mixture was added to the cell plate using a Bravo liquid handler (Agilent) prior to incubating cell plates at 37° C. with 5% CO2 and 85% humidity for 1 or 2 hours (OX1R and OX2R, respectively). During this incubation, IP-one detection reagents were prepared (38:1:1 lysis buffer:D2:AB-cryptate reagents). Six μL of mixed detection reagents were added to the cell plate using a Multidrop Combi (small cassette, Thermo Fisher Scientific cat #24073290) and incubated 60 minutes at room temperature in the dark. Fluorescence signal was detected using an Envision plate reader (Perkin Elmer) [LANCE/DELFIA Dual Enh (Em: APC 665; Ex: Cy5 620)].
For each compound, data were fit to a four parameter logistic fit (ActivityBase software) and the EC50 was reported as the inflection point of the resulting curve. Percent effect for each test compound was determined as the percentage of sample raw value/mean max effect, where the mean max effect was derived from the mean raw value of 32 control wells per assay plate (using Orexin A (cat #003-30) at 1 μM for human OX1R and a reference compound at 1 uM with 100% activity previously established by comparison to Orexin A for human OX2R). The intrinsic orexin receptor agonist activity of a compound which may be used in the present invention may be determined by these assays.

[1] = CHO cells expressing human OX2R, IP-One assay, 2 hours incubation, four parameter logistic fit, read-out: OX2R Potency, EC50

| SMILES | EC50 [1] [nM] | Emax, % of reference agonist [%] | OX2R Potency, EC50 (nM) (CHO cells expressing human OX2R, IP-One assay, 2 hours incubation, four parameter logistic fit) | EC50 [nM] |
| --- | --- | --- | --- | --- |
| COC(=O)N1CCC(NS(C)(=O)=O)[C@@H]1COC1CCC(C(C)C)CC1 (stereo in doubt) [Example 29, methyl (2R,3R)-2-(((4-isopropylcyclohexyl)oxy)methyl)-3-(methylsulfonamido)pyrrolidine-1-carboxylate] | 358 | 99.0 |  |  |
| CC(C)C1CCC(OC[C@H]2[C@@H](NS(C)(=O)=O)CCN2C(=O)C2CC2)CC1 (stereo partly drawn) [Example 30, N-((2R,3S)-1-(cyclopropanecarbonyl)-2-(((4-isopropylcyclohexyl)oxy)methyl)pyrrolidin-3-yl)methanesulfonamide] | 433 | 100.6 |  |  |
| CNS(=O)(=O)N[C@@H]1CCN(C(=O)OC)[C@@H]1CO[C@H]1CC[C@@H](c2ccccc2)CC1 (relative stereo) [Example 18, methyl (CIS)-3-((N-methylsulfamoyl)amino)-2-((((CIS)-4-phenylcyclohexyl)oxy)methyl) pyrrolidine-1-carboxylate] | 66.5 | 98.5 |  |  |
| CS(=O)(=O)N[C@H]1CCN(C(=O)C2CC2)[C@H]1CO[C@H]1CC[C@@H](c2ccccc2)CC1 (relative stereo) [Example 8, N-((CIS)-1-(cyclopropanecarbonyl)-2-((((CIS)-4-phenylcyclohexyl)oxy)methyl)pyrrolidin-3-yl) methanesulfonamide] | 77.9 | 101.6 |  |  |
| CS(=O)(=O)N[C@H]1CCN(C(=O)C2CC2)C1COC1CCC(c2ccccc2)CC1 (single isomer, unassigned) [Example 27] | 48.7 | 100.2 |  |  |
| COC(=O)N1CC[C@@H](NS(=O)(=O)N(C)C)[C@H]1CO[C@H]1CC[C@@H](c2ccccc2)CC1 (relative stereo) [Example 19, methyl (CIS)-3-((N,N-dimethylsulfamoyl)amino)-2-((((CIS)-4-phenylcyclohexyl)oxy)methyl) pyrrolidine-1-carboxylate] | 39.4 | 98.8 |  |  |
| COC(=O)N1CC[C@@H](NS(=O)(=O)CF)[C@H]1CO[C@H]1CC[C@@H](c2ccccc2)CC1 (relative stereo) [Example 16, methyl (CIS)-3-((fluoromethyl)sulfonamido)-2-((((CIS)-4-phenylcyclohexyl)oxy)methyl) pyrrolidine-1-carboxylate] | 177 | 100.7 |  |  |
| CCNC(=O)N1CC[C@H](NS(C)(=O)=O)[C@@H]1COC1CCC(C(C)C)CC1 (stereo partly drawn) [Example 28, (2R,3S)—N-ethyl-2-(((4-isopropylcyclohexyl)oxy)methyl)-3-(methylsulfonamido)pyrrolidine-1-carboxamide] |  | 99.8 |  | 57.8 |
| COC(=O)N1CC[C@H](NS(=O)(=O)c2ccccc2)[C@@H]1CO[C@H]1CC[C@@H](c2ccccc2)CC1 (relative stereo) [Example 17, methyl (CIS)-2-((((CIS)-4-phenylcyclohexyl)oxy)methyl)-3-(phenylsulfonamido)pyrrolidine-1-carboxylate] | 3700 | 82.3 |  |  |
| CS(=O)(=O)N[C@H]1CCN(C(=O)NCC2CCC2)[C@H]1CO[C@H]1CC[C@@H](c2ccccc2)CC1 (relative stereo) [Example 21, (CIS)-N-(cyclobutylmethyl)-3-(methylsulfonamido)-2-((((CIS)-4-phenylcyclohexyl)oxy)-methyl)pyrrolidine-1-carboxamide] | 5.65 | 103.2 |  |  |
| COC(=O)N1CC[C@@H](NS(=O)(=O)C2CC2)[C@H]1CO[C@H]1CC[C@@H](c2ccccc2)CC1 (relative stereo) [Example 15, methyl (CIS)-3-(cyclopropanesulfonamido)-2-((((CIS)-4-phenylcyclohexyl)oxy)methyl) pyrrolidine-1-carboxylate] | 299 | 99.8 |  |  |

The next lines start with results.

| EC50 [1] [nM] | Emax, % of reference agonist [%] | OX2R Potency, EC50 (nM) (CHO cells expressing human OX2R, IP-One assay, 2 hours incubation, four parameter logistic fit) | SMILES | EC50 [nM] |
| --- | --- | --- | --- | --- |
| 1010 | 96.4 |  | CS(=O)(=O)N[C@H]1CCN(C(=O)CC(F)(F)F)[C@H]1CO[C@H]1CC[C@@H](c2ccccc2)CC1 (relative stereo) [Example 20, N-((CIS)-2-((((CIS)-4-phenylcyclohexyl)oxy)methyl)-1-(3,3,3-trifluoropropanoyl)pyrrolidin-3-yl)methanesulfonamide] |  |
| 361 | 103.3 |  | CS(=O)(=O)N[C@H]1CCN(C(=O)CO)[C@H]1CO[C@H]1CC[C@@H](c2ccccc2)CC1 (relative stereo) [Example 25, N-((CIS)-1-(2-hydroxyacetyl)-2-((((CIS)-4-phenylcyclohexyl)oxy)methyl)pyrrolidin-3-yl)methanesulfonamide] |  |
| 328 | 96.4 |  | COC(=O)N1CC[C@H](NS(C)(=O)=O)[C@@H]1CO[C@H]1CC[C@@H](c2ccccc2)CC1 (relative stereo) [Example 2, methyl (CIS)-3-(methylsulfonamido)-2-((((CIS)-4-phenylcyclohexyl)oxy)-methyl)pyrrolidine-1-carboxylate] |  |
| 272 | 101.3 |  | CC(=O)N1CC[C@H](NS(C)(=O)=O)[C@@H]1CO[C@H]1CC[C@@H](c2ccccc2)CC1 (relative stereo) [Example 3, N-((CIS)-1-acetyl-2-((((CIS)-4-phenylcyclohexyl)oxy)methyl)pyrrolidin-3-yl)methanesulfonamide] |  |
| 493 | 100.2 |  | CS(=O)(=O)N[C@H]1CCN(C(=O)OCC(F)(F)F)[C@H]1CO[C@H]1CC[C@@H](c2ccccc2)CC1 (relative stereo) [Example 24, 2,2,2-trifluoroethyl (CIS)-3-(methylsulfonamido)-2-((((CIS)-4-phenylcyclohexyl)oxy)methyl)pyrrolidine-1-carboxylate] |  |
| 115 | 100.2 |  | COC(=O)N1CC[C@H](NS(C)(=O)=O)[C@@H]1CO[C@H]1CC[C@@H](c2ccccc2)CC1 [Example 11, methyl (2R,3S)-3-(methylsulfonamido)-2-((((CIS)-4-phenylcyclohexyl)oxy)methyl) pyrrolidine-1-carboxylate] |  |
| 3.65 | 103.7 |  | CS(=O)(=O)N[C@H]1CCN(C(=O)NCC(F)(F)F)[C@H]1CO[C@H]1CC[C@@H](c2ccccc2)CC1 (relative stereo) [Example 10, (CIS)-3-(methylsulfonamido)-2-((((CIS)-4-phenylcyclohexyl)oxy)methyl)-N-(2,2,2-trifluoroethyl)pyrrolidine-1-carboxamide] |  |
| 252 | 98.9 |  | CCOC(=O)N1CC[C@@H](NS(C)(=O)=O)[C@H]1CO[C@H]1CC[C@@H](c2ccccc2)CC1 (relative stereo) [Example 4, ethyl (CIS)-3-(methylsulfonamido)-2-((((CIS)-4-phenylcyclohexyl)oxy)methyl) pyrrolidine-1-carboxylate] |  |
|  | 17.1 | INACTIVE | CS(=O)(=O)N[C@H]1CCN(C(=O)C2CC2)C1COC1CCC(c2ccccc2)CC1 (single isomer, unassigned) [Example 26] |  |
